Test results reported in patent publication US20200325543A1, “DIAGNOSTIC METHOD” (TOLREMO THERAPEUTICS AG, priority 2017, published 2020).
Several values for one entry are separate records, joined by “and”; a condition that tells them apart may be missing. Equal entries are not always repeated. Structures can show the parent of a compound that is named as a salt. Where two headings read alike, the source gives them in different places.

Key:
[1] = tested on: SOX2; test: SOX2 levels by Western blot in A375-P cells; assay type: cell-based; conditions: 1 μM PLX4720, 0.5 μM AZD6244 or both, indicated times, versus 0.01% DMSO
Protocol: (A) A375-P cells were treated with PLX4720 (BRAFi) or DMSO for 6 h, RNA was isolated and RNA-Seq was performed. […] Differentially expressed genes (DEGs) selected for pathway analysis are represented by red and blue dots depending on the direction of the transcriptional change (red genes are induced upon PLX4720, blue genes are repressed upon PLX4720). (B) Bar graphs showing the five top pathways with significant enrichment of the analyzed DEGs. Longer bars indicate stronger significance. (C) Top deregulated genes upon treatment with PLX4720 (left column). Top genes induced and repressed by PLX4720 are shown in separate lists. (D) Indicated cell lines were treated with 1 μM PLX4720 or 0.01% DMSO (0 h) for the indicated times and the expressional changes of selected genes associated with stemness/EMT were confirmed by qPCR. […] As key player in the sternness signature, SOX2 levels were assessed. […] (F) A375-P cells were treated with 1 μM PLX4720, 0.5 μM AZD6244 (MEK1/2 inhibitor) or 0.01% DMSO for the indicated times and SOX2 levels were assessed by Western blot analysis. […] (G) A375-P cells were treated with 1 μM PLX4720 (BRAFi), 0.5 μM AZD6244 (MEKi), a combination of both drugs or 0.01% DMSO for the indicated times and SOX2 levels were assessed by Western blot analysis. […] For all Western blots, individual time points were assessed in at least two independent experiments. […]

[2] = tested on: genes associated with stemness/EMT; test: RNA-Seq / qPCR of genes associated with stemness/EMT in melanoma cells; assay type: cell-based; conditions: A375-P cells, 1 μM PLX4720, 0.5 μM AZD6244 or both, 24 h, versus 0.01% DMSO
[3] = tested on: SOX2; test: Screen of a library of FDA-approved drugs for SOX2 antibody staining in A375 cells treated with PLX4720 and AZD6244; conditions: for cor. loess: normalized and geometry-corrected (loess) signal; for norm: signal after plate normalization
[4] = A375 cells, 5 uM test drug with 1 uM PLX4720 and 0.5 uM AZD6244, 24 h
[5] = A375 cells, 5 uM test drug with 1 uM PLX4720 and 0.5 uM AZD6244, 24 h, raw signal (ratio of FL2 SOX2 antibody and FL3 nuclear staining), screen run in duplicate
[6] = Z-test against negative controls (DMSO), single dose 5 uM

Row | Molecule | SOX2 levels (Western blot) [1] | expressional changes of selected genes associated with stemness/EMT (qPCR) [2] | cor. loess [3, 4] | raw [3, 5] | norm [3, 4] | z [3, 6] | raw [3] | z [3]
1 | Cn1cnc2c(F)c(Nc3ccc(Br)cc3Cl)c(C(=O)NOCCO)cc21 [AZD6244] | induce similar SOX2 levels | comparable effects on transcript levels |  |  |  |  |  | 
2 | Cc1ccc(C(=O)Nc2ccc(CN3CCN(C)CC3)c(C(F)(F)F)c2)cc1C#Cc1cnc2cccnn12 [Ponatinib (AP24534), Ponatinib] |  |  | 0.6841 | 0.9701 | 0.7518 | 5.338 |  | 
3 | CO[C@H]1/C=C/O[C@@]2(C)Oc3c(C)c(O)c4c(O)c(c(/C=N/N5CCN(C)CC5)c(O)c4c3C2=O)NC(=O)/C(C)=C\C=C\[C@H](C)[C@H](O)[C@@H](C)[C@@H](O)[C@@H](C)[C@H](OC(C)=O)[C@@H]1C [RIFAMPIN] |  |  | 0.4025 | 0.9792 | 0.4925 | 3.454 |  | 
4 | CN1CCN(c2c(F)cc3c(=O)c(C(=O)O)cn4c3c2SCC4)CC1 [RUFLOXACIN HYDROCHLORIDE] |  |  | 0.3991 | 0.9796 | 0.4438 | 4.267 |  | 
5 | Cc1cn(-c2cc(NC(=O)c3ccc(C)c(Nc4nccc(-c5cnccn5)n4)c3)cc(C(F)(F)F)c2)cn1 [Radotinib] |  |  | 0.7186 | 0.9713 | 0.7194 | 7.683 |  | 
6 | CN(C)Cc1ccc(S(=O)(=O)n2ccc(/C=C/C(=O)NO)c2)cc1 [Resminostat] |  |  | 0.8 | 0.9656 | 0.8939 | 6.242 |  | 
7 | O=C(CCCCCCNC(=O)c1cnc(N(c2ccccc2)c2ccccc2)nc1)NO [Rocihnostat (ACY-1215), Rocihnostat] |  |  | 0.6577 | 0.9705 | 0.7378 | 5.132 |  | 
8 | CC[C@@H](C(=O)[C@@H](C)[C@@H](O)[C@H](C)[C@@H]1O[C@@H]([C@@H](CC)C(=O)O)CC[C@@H]1C)[C@H]1O[C@]2(C=C[C@@H](O)[C@]3(CC[C@@](C)([C@H]4CC[C@](O)(CC)[C@H](C)O4)O3)O2)[C@H](C)C[C@@H]1C [SALINOMYCIN, SODIUM] |  |  | 0.802 | 0.9671 | 0.8129 | 8.891 |  | 
9 | CO[C@H]1C[C@H](O[C@@H]2/C(C)=C/C[C@@H]3C[C@@H](C[C@]4(CC[C@H](C)[C@@H](C5CCCCC5)O4)O3)OC(=O)[C@@H]3C=C(C)/C(=N/O)[C@H]4OC/C(=C\C=C\[C@@H]2C)[C@]43O)O[C@@H](C)[C@@H]1O [SELAMECTIN] |  |  | 0.533 | 0.9768 | 0.5401 | 7.251 |  | 
10 | CO[C@H]1C[C@@H]2CC[C@@H](C)[C@@](O)(O2)C(=O)C(=O)N2CCCC[C@H]2C(=O)O[C@H]([C@H](C)C[C@@H]2CC[C@@H](O)[C@H](OC)C2)CC(=O)[C@H](C)/C=C(\C)[C@@H](O)[C@@H](OC)C(=O)[C@H](C)C[C@H](C)/C=C/C=C/C=C/1C [SIROLIMUS] |  |  | 0.3171 | 0.9808 | 0.4075 | 4.314 |  | 
11 | CCN(CC)CCNC(=O)c1c(C)[nH]c(/C=C2\C(=O)Nc3ccc(F)cc32)c1C [Sunitinib] |  |  | 0.5385 | 0.9775 | 0.514 | 5.758 |  | 
12 | [H]/N=C(/NCCCCC)N/N=C/c1c[nH]c2ccc(OC)cc12 [TEGASEROD MALEATE] |  |  | 0.2864 | 0.9849 | 0.2748 | 3.897 |  | 
13 | COc1cc([C@@H]2c3cc4c(cc3[C@@H](O[C@@H]3O[C@@H]5CO[C@@H](c6cccs6)O[C@H]5[C@H](O)[C@H]3O)[C@H]3COC(=O)[C@H]23)OCO4)cc(OC)c1O [TENIPOSIDE] |  |  | 0.6446 | 0.9667 | 0.8759 | 8.769 |  | 
14 | CC(C)(C)c1ccc(C(O)CCCN2CCC(C(O)(c3ccccc3)c3ccccc3)CC2)cc1 (centres unmarked) [TERFENADINE] |  |  | 0.2601 |  | 0.5459 | 3.539 |  | 
15 | Cc1cnc(Nc2ccc(OCCN3CCCC3)cc2)nc1Nc1cccc(S(=O)(=O)NC(C)(C)C)c1 [TG101348 (SAR302503)] |  |  | 1.471 | 0.9608 | 1.142 | 5.665 |  | 
16 | C[CH2][Hg][S]c1ccccc1C(=O)[O-].[Na+] [THIMEROSAL] |  |  |  |  |  |  | 0.9726 and 0.8663 | 
17 | Cc1cc2nc3ccc(N(C)C)cc3[s+]c2cc1N [TOLONIUM CHLORIDE] |  |  | 0.7082 | 0.971 | 0.6829 | 7.851 |  | 
18 | CC(=O)OCC(=O)[C@@]1(O)[C@H](OC(C)=O)C[C@H]2[C@@H]3CCC4=CC(=O)C=C[C@]4(C)[C@@]3(F)[C@@H](O)C[C@@]21C [TRIAMCINOLONE DIACETATE] |  |  | 0.3964 | 0.9794 | 0.4506 | 4.238 |  | 
19 | C[C@]12C=CC(=O)C=C1CC[C@H]1[C@@H]3C[C@@H](O)[C@](O)(C(=O)CO)[C@@]3(C)C[C@H](O)[C@@]12F [TRIAMCINOLONE] |  |  | 0.4006 | 0.9821 | 0.3941 | 3.438 |  | 
20 | Oc1cc(Cl)ccc1Oc1ccc(Cl)cc1Cl [TRICLOSAN] |  |  | 0.531 | 0.9753 | 0.5438 | 3.141 |  | 
21 | O=c1[nH]c(=O)n([C@H]2C[C@H](O)[C@@H](CO)O2)cc1C(F)(F)F [TRIFLURIDINE] |  |  | 0.4387 | 0.9796 | 0.4485 | 5.969 |  | 
22 | COc1ccc2cc1Oc1ccc(cc1)C[C@H]1c3cc(c(OC)cc3CCN1C)Oc1c(OC)c(OC)cc3c1[C@H](C2)N(C)CC3 [Tetrandrine] |  |  | 1.018 | 0.9619 | 1.018 | 7.2 |  | 
23 | O=C(CCCCCCC(=O)Nc1ccccc1)NO [VORINOSTAT] |  |  | 0.9868 | 0.9634 | 0.984 | 13.43 |  | 
24 | Cc1ccc(-c2nc3ccc(C)cn3c2CC(=O)N(C)C)cc1 [ZOLPIDEM] |  |  | 0.2522 | 0.9798 | 0.4412 | 3.432 |  | 
25 | ABAMECTIN [ABAMECTIN (avermectin B1a shown)] |  |  | 0.4606 | 0.9779 | 0.5009 | 4.925 |  | 
26 | Aprotinin |  |  | 1.14 | 0.9662 | 0.9994 | 4.093 |  | 
27 | GRAMICIDIN [GRAMICIDIN (gramicidin A shown)] |  |  | 0.5992 | 0.9705 | 0.7289 |  |  | 4.938
28 | HYDROCORTISONE HEMISUCCINATE |  |  | 0.4622 |  | 0.507 |  |  | 3.809
29 | IVERMECTIN |  |  | 0.6358 | 0.9726 | 0.6393 | 3.761 |  | 
30 | MONENSIN SODIUM |  |  | 0.5359 | 0.9761 | 0.5968 | 4.599 |  | 
